We go through 2 molecules from article PMC6443996, “1‐Hydroxy‐xanthine derivatives inhibit the human Caf1 nuclease and Caf1‐containing nuclease complexes via Mg^2+‐dependent binding” (FEBS Open Bio, 2019).

Structures are written as SMILES.

Assay in all cases: chemiluminescence-based AMP detection (AMP-Glo) deadenylase assay
Assay type in all cases: biochemical

For experiment [1], the target named is T1, human pentameric central module (BTG2-Caf1/CNOT7-Ccr4/CNOT6L-CNOT1-CNOT9) of Ccr4-Not (Homo sapiens, UniProt Q9UIV1).
T1 construct: pentamer reconstituted from separately purified nuclease module and CNOT1 (MIF4G and DUF3819 domains, 1093-1595)-CNOT9 (ARM domain, 33-283) dimer; E. coli; with CCR4-NOT transcription complex subunit 6-like; Protein BTG2; CCR4-NOT transcription complex subunit 1; CCR4-NOT transcription complex subunit 9
T1 sequence (Q9UIV1 whole entry, other chains not shown, the tested form may be a part): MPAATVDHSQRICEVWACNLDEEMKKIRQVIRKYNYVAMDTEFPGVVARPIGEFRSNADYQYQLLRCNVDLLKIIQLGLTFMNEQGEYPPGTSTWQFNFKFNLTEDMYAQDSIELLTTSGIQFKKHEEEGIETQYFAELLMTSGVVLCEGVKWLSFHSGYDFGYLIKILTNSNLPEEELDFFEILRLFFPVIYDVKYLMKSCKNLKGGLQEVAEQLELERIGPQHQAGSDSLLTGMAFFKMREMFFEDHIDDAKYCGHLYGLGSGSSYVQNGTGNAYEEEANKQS
T1 sequence (P78543 whole entry partner, other chains not shown, the tested form may be a part): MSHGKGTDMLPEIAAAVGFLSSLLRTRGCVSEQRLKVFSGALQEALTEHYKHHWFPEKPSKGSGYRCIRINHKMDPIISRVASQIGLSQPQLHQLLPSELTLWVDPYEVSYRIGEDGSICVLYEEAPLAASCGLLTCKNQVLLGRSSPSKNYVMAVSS
T1 sequence (A5YKK6 1093-1595 partner, other chains not shown): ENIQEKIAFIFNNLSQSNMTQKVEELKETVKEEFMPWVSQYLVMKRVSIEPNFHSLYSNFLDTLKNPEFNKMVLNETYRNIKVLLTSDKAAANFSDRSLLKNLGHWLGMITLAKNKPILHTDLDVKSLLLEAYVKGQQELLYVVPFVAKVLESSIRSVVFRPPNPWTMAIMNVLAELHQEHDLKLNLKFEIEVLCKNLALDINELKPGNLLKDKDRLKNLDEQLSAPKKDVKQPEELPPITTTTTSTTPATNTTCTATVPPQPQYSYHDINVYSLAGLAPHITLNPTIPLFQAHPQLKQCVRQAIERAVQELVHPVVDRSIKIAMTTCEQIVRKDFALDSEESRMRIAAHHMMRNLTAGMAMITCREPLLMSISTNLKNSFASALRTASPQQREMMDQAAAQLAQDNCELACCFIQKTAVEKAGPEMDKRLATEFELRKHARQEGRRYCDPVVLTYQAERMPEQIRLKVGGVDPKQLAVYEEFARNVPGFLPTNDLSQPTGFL
T1 sequence (Q92600 33-283 partner, other chains not shown): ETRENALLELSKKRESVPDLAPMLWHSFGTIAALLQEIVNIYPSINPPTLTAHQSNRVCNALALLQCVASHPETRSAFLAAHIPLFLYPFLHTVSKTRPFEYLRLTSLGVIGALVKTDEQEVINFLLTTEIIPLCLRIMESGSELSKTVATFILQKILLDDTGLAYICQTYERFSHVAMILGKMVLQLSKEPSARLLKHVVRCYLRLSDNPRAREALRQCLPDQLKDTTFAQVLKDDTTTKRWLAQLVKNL
To be noted: read-out: IC50 (μM) vs pentameric Caf1-complex ^d.

The target of experiment [2] is T2, trimeric human nuclease module (BTG2-Caf1/CNOT7-Ccr4/CNOT6L) (Homo sapiens, UniProt Q9UIV1).
T2 construct: trimeric complex co-expressed from pQE80L-BTG2 and pACYC-Duet1-Strep-CNOT6L-CNOT7 in E. coli; with CCR4-NOT transcription complex subunit 6-like; Protein BTG2
T2 sequence (Q9UIV1 whole entry, other chains not shown): as the sequence (Q9UIV1 whole entry, other chains not shown, the tested form may be a part) above
T2 sequence (P78543 whole entry partner, other chains not shown): as the sequence (P78543 whole entry partner, other chains not shown, the tested form may be a part) above
To be noted: read-out: IC50 (μM) vs trimeric Caf1-complex ^c.

Another experiment has as its target T3, human Caf1/CNOT7 (Homo sapiens, UniProt Q9UIV1).
T3 construct: isolated recombinant wild-type Caf1 subunit, expressed and purified from Escherichia coli BL21(DE3)
The note with it: read-out: IC50 (μM) vs Caf1 ^b. From the text:
chemiluminescence-based AMP detection (AMP-Glo) deadenylase assay on human Caf1/CNOT7

T3 sequence (Q9UIV1 whole entry): as the sequence (Q9UIV1 whole entry, other chains not shown, the tested form may be a part) above

The term IC50 denotes the concentration at which inhibition is half-maximal. Take `O=c1[nH]c2ncn(Cc3ccccc3)c2c(=O)n1O` [compound 1, 1-hydroxy-xanthine compound 1]: the results for the IC50 (in experiment [1]; in experiment [2]; on human Caf1/CNOT7) were 10.8 ± 0.2 µM, 13.6 ± 0.6 µM and 12.7 ± 0.9 µM, respectively.

For the molecule `CN(C)CCCn1c(=O)n(O)c(=O)c2c1ncn2CCc1ccccc1` [compound 5, 1-hydroxy-xanthine compound 5], the IC50 in experiment [1] was 0.98 ± 0.07 µM; in experiment [2] it was 1 ± 0.2 µM; at human Caf1/CNOT7, 0.79 ± 0.09 µM.
